The values that follow come from patent publication US10508104B2, “6-hydroxy-5-(phenyl/heteroarylsulfonyl)pyrimidin-4(1H)-one as APJ agonists” (Bristol-Myers Squibb Company, priority 2016, dated 2019).

Structures are written as SMILES. pEC50: −log10 of the molar value.

The target of one test is human APJ receptor (Homo sapiens (Human), UniProt P35414). The test can be described thus: Intracellular cAMP accumulation assay (APJ hcAMP, HTRF). The test is classed as cell-based. As to conditions: HEK293 cells stably expressing human APJ receptor; inhibition of forskolin-mediated cAMP production; read-out: Human APJ cAMP EC50 Potency range. A digest of the protocol: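 HEK293 cells stably expressing human APJ, 5,000 per well, incubated 30 min at rt with compound, […] and 2 μM forskolin. cAMP measured by HTRF against a cAMP standard curve as inhibition of forskolin-driven production. EC50 from variable-slope sigmoidal fit.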
Sequence of human APJ receptor (P35414 whole entry): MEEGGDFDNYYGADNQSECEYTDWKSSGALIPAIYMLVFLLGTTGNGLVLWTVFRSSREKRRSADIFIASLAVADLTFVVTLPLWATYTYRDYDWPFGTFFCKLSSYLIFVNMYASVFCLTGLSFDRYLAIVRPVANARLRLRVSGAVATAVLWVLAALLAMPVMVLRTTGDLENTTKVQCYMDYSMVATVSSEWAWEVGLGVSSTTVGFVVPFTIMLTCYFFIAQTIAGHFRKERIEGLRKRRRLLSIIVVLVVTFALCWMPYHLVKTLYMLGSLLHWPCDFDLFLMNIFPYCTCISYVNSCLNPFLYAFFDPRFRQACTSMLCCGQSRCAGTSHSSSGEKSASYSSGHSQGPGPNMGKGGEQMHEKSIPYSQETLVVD
For orientation: cAMP levels reflect the balance of adenylyl cyclase and phosphodiesterase activity.
The term pEC50 denotes −log10 of the EC50, conventionally taken in molar units. On to `C=C(c1cccc(C#N)c1)n1c(CCCC)nc(=O)c(S(=O)(=O)c2ccc(-c3ccncc3C)cc2)c1O` [Example 360, 3-(1-(2-butyl-6-hydroxy-5-((4-(3-methylpyridin-4-yl)phenyl)sulfonyl)-4-oxopyrimidin-1 (4H)-yl)vinyl)benzonitrile], for which the pEC50 was 8.00 to 11.00.
As for `CCOCc1nc(=O)c(S(=O)(=O)c2ccc(C(C)(C)C)cc2)c(O)n1-c1c(CC)cccc1CC` [Example 361, 5-(4-tert-butylbenzenesulfonyl)-1-(2,6-diethylphenyl)-2-(ethoxymethyl)-6-hydroxy-1,4-dihydropyrimidin-4-one], the pEC50 was 8.00 to 11.00.
For `CCCCc1nc(=O)c(S(=O)(=O)c2ccc(C(C)(C)C)cc2)c(O)n1-c1c(CC)cccc1CC` [Example 362, 2-butyl-5-(4-tert-butylbenzenesulfonyl)-1-(2,6-diethylphenyl)-6-hydroxy-1,4-dihydropyrimidin-4-one], the pEC50 is 8.00 to 11.00.
Regarding `CCCCc1nc(=O)c(S(=O)(=O)c2ccc(C(C)(C)C)cc2)c(O)n1-c1c(OC)cccc1OC` [Example 363, 2-butyl-5-(4-tert-butylbenzenesulfonyl)-1-(2,6-dimethoxyphenyl)-6-hydroxy-1,4-dihydropyrimidin-4-one], the pEC50 was 8.00 to 11.00.
Take `CCCCc1nc(=O)c(S(=O)(=O)[C@H]2CC[C@H](OCc3ccccc3)CC2)c(O)n1-c1c(CC)cccc1CC` [Example 364, 2-butyl-1-(2,6-diethylphenyl)-6-hydroxy-5-{[(1r,4r)-4-(benzyloxy)cyclohexyl]sulfonyl}-1,4-dihydropyrimidin-4-one]: the pEC50 was 8.00 to 11.00.
As to `CCCCc1nc(=O)c(S(=O)(=O)[C@H]2CC[C@@H](OCc3ccccc3)CC2)c(O)n1-c1c(CC)cccc1CC` [Example 365, 2-butyl-1-(2,6-diethylphenyl)-6-hydroxy-5-{[(1s,4s)-4-(benzyloxy)cyclohexyl]sulfonyl}-1,4-dihydropyrimidin-4-one], the pEC50 is 8.00 to 11.00.
`CCCCc1nc(=O)c(S(=O)(=O)[C@H]2CC[C@H](OCc3ccccc3)CC2)c(O)n1-c1c(OC)cccc1OC` [Example 366, 2-butyl-1-(2,6-dimethoxyphenyl)-6-hydroxy-5-{[(1r,4r)-4-(benzyloxy)cyclohexyl]sulfonyl}-1,4-dihydropyrimidin-4-one]: the pEC50 was 8.00 to 11.00.
With `CCCCc1nc(=O)c(S(=O)(=O)[C@H]2CC[C@@H](OCc3ccccc3)CC2)c(O)n1-c1c(OC)cccc1OC` [Example 367, 2-butyl-1-(2,6-dimethoxyphenyl)-6-hydroxy-5-{[(1s,4s)-4-(benzyloxy)cyclohexyl]sulfonyl}-1,4-dihydropyrimidin-4-one], the negative-log EC50 (pEC50) was 8.00 to 11.00.
Regarding `COC[C@@H](c1cc(F)cc(F)c1)n1c(COC(C)C)nc(=O)c(S(=O)(=O)c2ccc(Br)cc2)c1O` [Example 368, 5-(4-bromobenzenesulfonyl)-1-[(1R)-1-(3,5-difluorophenyl)-2-methoxyethyl]-6-hydroxy-2-[(propan-2-yloxy)methyl]-1,4-dihydropyrimidin-4-one], the pEC50 was 8.00 to 11.00.
Regarding `CC[C@@H](c1cccc(C#N)c1)n1c(COC(C)C)nc(=O)c(S(=O)(=O)c2ccc(Br)cc2)c1O` [Example 369, 3-[(1S)-1-[5-(4-bromobenzenesulfonyl)-6-hydroxy-4-oxo-2-[(propan-2-yloxy)methyl]-1,4-dihydropyrimidin-1-yl]propyl]benzonitrile], the pEC50 is 8.00 to 11.00.
Same read-out and setting: the figure for `CCOCc1nc(=O)c(S(=O)(=O)c2ccc(Br)cc2)c(O)n1[C@@H](COC)c1cc(F)cc(F)c1` [Example 370, 5-(4-bromobenzenesulfonyl)-1-[(1R)-1-(3,5-difluorophenyl)-2-methoxyethyl]-2-(ethoxymethyl)-6-hydroxy-1,4-dihydropyrimidin-4-one] is 8.00 to 11.00.
As for `COC[C@@H](c1cccc(C#N)c1)n1c(COC(C)C)nc(=O)c(S(=O)(=O)c2ccc(Br)cc2)c1O` [Example 371, 3-[(1R)-1-[5-(4-bromobenzenesulfonyl)-6-hydroxy-4-oxo-2-[(propan-2-yloxy)methyl]-1,4-dihydropyrimidin-1-yl]-2-methoxyethyl]benzonitrile], the pEC50 is 8.00 to 11.00.
On to `CC(C)OCc1nc(=O)c(S(=O)(=O)c2ccc(Br)cc2)c(O)n1[C@H](c1cccc(C#N)c1)C1CC1` [Example 372, 3-[(S)-[5-(4-bromobenzenesulfonyl)-6-hydroxy-4-oxo-2-[(propan-2-yloxy)methyl]-1,4-dihydropyrimidin-1-yl](cyclopropyl)methyl] benzonitrile], for which the pEC50 was 8.00 to 11.00.
Consider `CCOCc1nc(=O)c(S(=O)(=O)c2ccc(-c3ccnc(F)c3C)c(F)c2)c(O)n1C(COC)c1cccc(F)c1` (centres unmarked) [Example 373, 2-(ethoxymethyl)-5-[3-fluoro-4-(2-fluoro-3-methylpyridin-4-yl)benzenesulfonyl]-1-[1-(3-fluorophenyl)-2-methoxyethyl]-6-hydroxy-1,4-dihydropyrimidin-4-one], for which the pEC50 was 8.00 to 11.00.
Regarding `CCOCc1nc(=O)c(S(=O)(=O)c2ccc(-c3ccnc(F)c3C)c(F)c2)c(O)n1C(COC)c1cccc(F)c1` (centres unmarked) [Example 374, 2-(ethoxymethyl)-5-[3-fluoro-4-(2-fluoro-3-methylpyridin-4-yl)benzenesulfonyl]-1-[1-(3-fluorophenyl)-2-methoxyethyl]-6-hydroxy-1,4-dihydropyrimidin-4-one], the pEC50 is 8.00 to 11.00.
For `CCOCc1nc(=O)c(S(=O)(=O)c2ccc(-c3ccc(F)nc3C)c(F)c2)c(O)n1C(COC)c1cccc(F)c1` (centres unmarked) [Example 375, 2-(ethoxymethyl)-5-[3-fluoro-4-(6-fluoro-2-methylpyridin-3-yl)benzenesulfonyl]-1-[1-(3-fluorophenyl)-2-methoxyethyl]-6-hydroxy-1,4-dihydropyrimidin-4-one], the pEC50 was 8.00 to 11.00.
As for `CCOCc1nc(=O)c(S(=O)(=O)c2ccc(-c3ccc(F)nc3C)c(F)c2)c(O)n1C(COC)c1cccc(F)c1` (centres unmarked) [Example 376, 2-(ethoxymethyl)-5-[3-fluoro-4-(6-fluoro-2-methylpyridin-3-yl)benzenesulfonyl]-1-[1-(3-fluorophenyl)-2-methoxyethyl]-6-hydroxy-1,4-dihydropyrimidin-4-one], the pEC50 is 8.00 to 11.00.
Take `COC[C@@H](c1cc(F)cc(F)c1)n1c(COC(C)C)nc(=O)c(S(=O)(=O)c2ccc(-c3ccncc3C)cc2)c1O` [Example 377, 1-[(1R)-1-(3,5-difluorophenyl)-2-methoxyethyl]-6-hydroxy-5-[4-(3-methylpyridin-4-yl)benzenesulfonyl]-2-[(propan-2-yloxy)methyl]-1,4-dihydropyrimidin-4-one]: the pEC50 is 8.00 to 11.00.
For `COC[C@@H](c1cc(F)cc(F)c1)n1c(COC(C)C)nc(=O)c(S(=O)(=O)c2ccc(-c3ccnc(F)c3C)cc2)c1O` [Example 378, 1-[(1R)-1-(3,5-difluorophenyl)-2-methoxyethyl]-5-[4-(2-fluoro-3-methylpyridin-4-yl)benzenesulfonyl]-6-hydroxy-2-[(propan-2-yloxy)methyl]-1,4-dihydropyrimidin-4-one], the pEC50 is 8.00 to 11.00.

Still in this test, the particulars now being: human APJ, cAMP accumulation; read-out: Human APJ cAMP EC50 Potency range.
For the compound `CCOCc1nc(=O)c(S(=O)(=O)c2ccc(-c3ccnc(F)c3C)c(F)c2)c(O)n1[C@@H](COC)c1cccc(C#N)c1` [Example 343, 3-[(1R)-1-[2-(ethoxymethyl)-5-[3-fluoro-4-(2-fluoro-3-methylpyridin-4-yl)benzenesulfonyl]-6-hydroxy-4-oxo-1,4-dihydropyrimidin-1-yl]-2-methoxyethyl] benzonitrile], the pEC50 is 8.00 to 11.00.
Same read-out and setting: the result for `CCOCc1nc(=O)c(S(=O)(=O)c2ccc(-c3ccc(F)nc3C)c(F)c2)c(O)n1[C@@H](COC)c1cccc(C#N)c1` [Example 344, 3-[(1R)-1-[2-(ethoxymethyl)-5-[3-fluoro-4-(6-fluoro-2-methylpyridin-3-yl)benzenesulfonyl]-6-hydroxy-4-oxo-1,4-dihydropyrimidin-1-yl]-2-methoxyethyl] benzonitrile] reads 8.00 to 11.00; that for `CCOCc1nc(=O)c(S(=O)(=O)c2ccc(-c3ccncc3C)c(F)c2)c(O)n1[C@@H](COC)c1cccc(C#N)c1` [Example 345, 3-[(1R)-1-[2-(ethoxymethyl)-5-[3-fluoro-4-(3-methylpyridin-4-yl)benzenesulfonyl]-6-hydroxy-4-oxo-1,4-dihydropyrimidin-1-yl]-2-methoxyethyl] benzonitrile], 8.00 to 11.00.
Same read-out and setting: the result for `CCOCc1nc(=O)c(S(=O)(=O)c2ccc(-c3ccnc(F)c3C)c(F)c2)c(O)n1C(COC)c1cccc(F)c1` (centres unmarked) [Example 346, 2-(ethoxymethyl)-5-[3-fluoro-4-(2-fluoro-3-methylpyridin-4-yl)benzenesulfonyl]-1-[1-(3-fluorophenyl)-2-methoxyethyl]-6-hydroxy-1,4-dihydropyrimidin-4-one] reads 8.00 to 11.00; that for `CCOCc1nc(=O)c(S(=O)(=O)c2ccc(-c3ccc(F)nc3C)c(F)c2)c(O)n1C(COC)c1cccc(F)c1` (centres unmarked) [Example 347, 2-(ethoxymethyl)-5-[3-fluoro-4-(6-fluoro-2-methylpyridin-3-yl)benzenesulfonyl]-1-[1-(3-fluorophenyl)-2-methoxyethyl]-6-hydroxy-1,4-dihydropyrimidin-4-one], 8.00 to 11.00.
In the case of `CCCCc1nc(=O)c(S(=O)(=O)c2ccc(C3CC3)cc2)c(O)n1[C@@H](CC)c1cccc(C#N)c1` [Example 348, 3-[(1S)-1-[2-butyl-5-(4-cyclopropylbenzene-sulfonyl)-6-hydroxy-4-oxo-1,4-dihydropyrimidin-1-yl]propyl]benzonitrile], the pEC50 was 8.00 to 11.00.
Regarding `COC[C@@H](c1ccccc1)n1c(C2CCCO2)nc(=O)c(S(=O)(=O)c2ccc(Br)cc2)c1O` (stereo partly drawn) [Example 349, 5-(4-bromobenzenesulfonyl)-6-hydroxy-1-[(1R)-2-methoxy-1-phenylethyl]-2-(oxolan-2-yl)-1,4-dihydropyrimidin-4-one], the pEC50 was 6.52 to 7.00.
